How the values were obtained:
[1] = molecular target: CYP26A1 (Homo sapiens (Human), UniProt O43174); assay: Cell-based inhibitor assay ([3H]-RA metabolism), CYP26A1 stably transfected HeLa cells
Procedure: (§1) CYP26A1 or CYP26B1 stably transfected HeLa cells were maintained in Minimum Essential Medium (MEM) containing 10% fetal bovine serum (FBS) and 100 μg/mL hygromycin. Exponentially growing cells were harvested by incubation in trypsin. Cells were then collected and re-plated in 48-well culture plates at 5×10^5 cells in 0.2 mL of culture medium containing 0.05 μCi [^3H]-RA in the presence or absence of increasing concentrations of a test compound. The test compounds were diluted in dimethyl sulfoxide (DMSO) and then added in duplicate to wells at 0.01, 0.1, 1, 10 and 100 μM final concentration. As a positive control for inhibition of RA metabolism, cells were also incubated with ketoconazole at the same concentrations as above. Cells were incubated for 3 hours at 37° C. Retinoids were then extracted using the procedure of Bligh, et al., (1959), Canadian Journal of Biochemistry 37, 911-917, which was modified by using dichloromethane instead of chloroform. Each sample's water soluble radioactivity level was quantified using a β-scintillation counter (using Ecolume scintillation fluid, available from MP Biomedicals of Solon, Ohio, USA). IC50 values represented the concentration of inhibitor required to inhibit all trans-RA metabolism by 50%, and were derived from log transformed data.

[2] = test system: mouse OP9 bone marrow stromal cells; assay: RA metabolism by OP9 bone marrow stromal cells; assay type: cell-based
Procedure: (§2) These experiments are to assess the ability of primary cells, or cell lines to metabolize RA, and to determine the effect of inhibition of CYP26A1 or CYP26B1 on this ability. For these experiments, cells are plated into 48-well plates and treated with a radiolabeled (^3H) RA. The extent of conversion of this labeled RA to water soluble metabolites is determined as above for in the cell-based inhibitor assay. Primary human bone marrow stromal cells (available from Lonza) were cultured in MyeloCult (available from Stem Cell Technologies, Vancouver, Canada). Mouse OP9 bone marrow stromal cells and MC3T3 pre-osteoblasts were cultured as above. Cells are plated in the appropriate culture medium and allowed to form a monolayer. Cells are then pre-treated with either DMSO (vehicle control) or RA (1 μM) for 24 hours to induce CYP26 expression. Vehicle, and RA induced cells are then exposed to ^3H-RA in the presence or absence of test CYP26 inhibitor to examine the effects on RA metabolism. Cells are incubated for 3 hours with labeled RA, and metabolites extracted and analyzed as above.

[3] = test system: Cyp26a1-luc construct in MCF-7 cells; assay: Retinoid activity assay, Cyp26a1-luc reporter in MCF-7 cells; assay type: cell-based; conditions: for Rel. Luciferase Activity (mean): 24 hours, firefly relative to Renilla luciferase
From the text: This retinoid activity assay measures the ability of test compounds to induce expression of a transiently transfected RA sensitive reporter construct. In this assay, MCF-7 cells are transfected with a construct comprising an upstream promoter of the CYP26A1 gene containing 2 RA response elements driving expression of firefly luciferase (pCYP26A1-luc). Since CYP26A1 is highly inducible by RA in these cells, this construct serves as a sensitive reporter of retinod-like transcriptional activity.
MCF-7 cells were maintained in a RPMI-1640 medium containing 10% FBS. Exponentially growing cells were harvested by incubation in trypsin. Cells were then collected and plated in 24-well plates at 50,000 cells/well. Once cells reached 80-90% confluence (e.g., the next day), cells were transfected with two plasmids. The first plasmid was CYP26A1-luc construct (375 ng). The second plasmid was a control plasmid comprising the Renilla luciferase gene driven by constitutive thymidine kinase promoter (pRL-tk) (25 ng). Transfection was performed using FuGene 6 transfection reagent (Promega) with a 1:3 ratio of DNA:FuGene. 24 hours after transfection, cells were treated with test compounds diluted in DMSO in triplicate at 0.1, 1 and 10 μM final concentrations. As a positive control for reporter activation, cells were also treated with RA diluted in DMSO at the same concentrations listed above. DMSO treatment alone served as a negative control. After 24 hours of treatment, cells were harvested in passive lysis buffer (Promega) and luciferase activity in cell lysates were read using a luminometer. Data are expressed as the activity of firefly luciferase relative to Renilla luciferase (see Tables 3-5). For CYP26A1 inhibitor compounds, no activation of the reporter was detected, while the related retinoid-like compound induces luciferase expression.

[4] = test system: MC3T3-E1 cells; assay: Osteoblast cell differentiation, MC3T3-E1 cells; assay type: cell-based, mouse
Procedure: These experiments are used to test the ability of CYP26 inhibitors to reduce or block osteoblast differentiation in vitro using a cell culture model. MC3T3-E1 mouse calvarias pre-osteoblasts (available from the American Type Culture Collection) were cultured in MEM-α without ascorbic acid. To induce osteoblast differentiation and matrix mineralization, cells are switched to medium containing ascorbic acid (50 μg/ml) and phosphate (10 mM β-glycerophosphate) and cultured for up to 21 days while changing media every 2-3 days. Cells are also treated with varying concentrations of RA or CYP26 inhibitor compound to assess effects on osteoblast differentiation. At the end of the treatment period, cells in 24-well plates and fixed in 70% ethanol, and stained with Alizarin red (40 mM pH 4.2) to visualize calcified extracellular matrix, indicative of osteoblast differentiation. Stained wells were photographed under a Leica MZ95 dissecting microscope. Other cells grown in 6 well plates are used for RNA extraction, and qPCR analysis of bone differentiation markers and RA target genes.

[5] = molecular target: CYP26B1 (Homo sapiens (Human), UniProt Q9NR63); assay: Cell-based inhibitor assay ([3H]-RA metabolism), CYP26B1 stably transfected HeLa cells
Procedure: as §1

[6] = test system: MC3T3 cells; assay: RA metabolism by MC3T3 pre-osteoblasts; assay type: cell-based, mouse
Procedure: as §2

Sequence of CYP26B1 (Q9NR63 whole entry): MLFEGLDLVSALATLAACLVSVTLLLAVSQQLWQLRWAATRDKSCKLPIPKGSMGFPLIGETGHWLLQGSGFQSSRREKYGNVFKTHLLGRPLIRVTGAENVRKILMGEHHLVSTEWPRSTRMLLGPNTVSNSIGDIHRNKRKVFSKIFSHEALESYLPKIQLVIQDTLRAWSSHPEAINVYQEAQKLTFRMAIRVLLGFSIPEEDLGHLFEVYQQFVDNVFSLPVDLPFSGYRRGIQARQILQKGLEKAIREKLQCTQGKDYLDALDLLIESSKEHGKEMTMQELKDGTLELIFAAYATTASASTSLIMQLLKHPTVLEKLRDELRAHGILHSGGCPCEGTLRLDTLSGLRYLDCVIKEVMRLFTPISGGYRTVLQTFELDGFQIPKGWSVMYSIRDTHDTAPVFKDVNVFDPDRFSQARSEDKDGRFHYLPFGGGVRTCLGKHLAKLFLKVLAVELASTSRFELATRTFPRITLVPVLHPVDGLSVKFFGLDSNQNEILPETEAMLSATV
Sequence of CYP26A1 (O43174 whole entry): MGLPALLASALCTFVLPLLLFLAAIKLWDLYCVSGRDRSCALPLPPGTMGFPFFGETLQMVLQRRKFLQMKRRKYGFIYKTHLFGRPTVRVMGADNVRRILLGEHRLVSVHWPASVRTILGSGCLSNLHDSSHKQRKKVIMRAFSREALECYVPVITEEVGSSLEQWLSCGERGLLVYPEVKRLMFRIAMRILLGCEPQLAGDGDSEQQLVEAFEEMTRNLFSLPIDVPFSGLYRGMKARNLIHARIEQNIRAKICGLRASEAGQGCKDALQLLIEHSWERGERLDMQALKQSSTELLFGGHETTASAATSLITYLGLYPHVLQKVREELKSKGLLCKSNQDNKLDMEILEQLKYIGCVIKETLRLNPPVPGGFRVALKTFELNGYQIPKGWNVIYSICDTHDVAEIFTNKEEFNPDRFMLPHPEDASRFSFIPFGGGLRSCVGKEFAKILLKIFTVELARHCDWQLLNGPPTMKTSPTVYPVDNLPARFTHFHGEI

Structure (SMILES): CC(C)(C)c1cccc(-c2cc3cc(/C=C/C(=O)O)ccc3[nH]2)c1 [Compound 026]
- CYP26A1 inhibition compared with ketoconazole ([1]; FIG. 1): comparable to ketoconazole
- IC50 ([1]; HeLa cell-based assay, 3 hours): 7 µM
- CYP26A1 Rel. to keto ([1]; IC50 relative to ketoconazole): 4.4
- RA metabolism, basal and RA-induced [2]: efficiently blocked basal and RA-induced RA metabolism
- Agonist activity in luciferase reporter transactivation experiment [3]: did not show agonist activity
- Rel. Luciferase Activity (mean) ([3]; 0.1 μM): .0522
- Rel. Luciferase Activity (mean) ([3]; 1 μM): .0472
- Rel. Luciferase Activity (mean) ([3]; 10 μM): .0678
- Bglap and Ibsp expression ([4]; 10 nmol RA plus 1 μM compound): suppressing Bglap and Ibsp expression
- Bglap and Ibsp expression ([4]; 10 μM compound, osteogenic medium): blocked their expression
- Cyp26b1 gene expression ([4]; compared with controls): dramatic upregulation of Cyp26b1
- Calcified matrix (alizarin red staining) ([4]; osteogenic medium, 21 days, increasing concentrations): reduced by the presence of compound 026 in a dose-dependent manner
- CYP26B1 inhibition compared with ketoconazole ([5]; FIG. 2): dramatically increased inhibition of CYP26B1 enzyme activity compared with ketoconazole
- Selectivity CYP26B1 versus CYP26A1 ([5]; HeLa cell-based assay): highly selective towards CYP26B1
- IC50 ([5]; HeLa cell-based assay, 3 hours): 0.2 µM
- CYP26B1 Rel. to keto ([5]; IC50 relative to ketoconazole): 0.02
- RA metabolism, basal and RA-induced [6]: block basal as well as RA-induced RA metabolism in these cells in a dose-dependent manner

From patent US11358933B2, “Compounds and methods for inhibiting CYP26 enzymes” (Queen's University at Kingston, priority 2017, dated 2022)
